Assay results from PubChem BioAssay (NCI).
Where “and” joins values, the source holds several entries; their conditions need not be identical. Identical values can stand only once.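 Each compound was tested at five concentrations against cells in 96-well plates for 48 hours. GI50 marks 50% less growth. TGI: concentration producing complete growth inhibition.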

Tests used:
Assay in all cases: inhibition of tumour cell growth, NCI panel, 48 h
HOP-62 NSCLC = tested on: HOP-62 NSCLC
HT29 colon = tested on: HT29 colon
MALME-3M melanoma = tested on: MALME-3M melanoma
MCF7 breast = tested on: MCF7 breast
PC-3 prostate = tested on: PC-3 prostate
SF-539 CNS = tested on: SF-539 CNS
SNB-75 CNS = tested on: SNB-75 CNS
T-47D breast = tested on: T-47D breast
K-562 leukemia = tested on: K-562 leukemia
NCI-H522 lung = tested on: NCI-H522 lung

Structure (SMILES)	TGI (HOP-62 NSCLC)	TGI (HT29 colon)	TGI (MALME-3M melanoma)	TGI (MCF7 breast)	TGI (PC-3 prostate)	TGI (SF-539 CNS)	TGI (SNB-75 CNS)	TGI (T-47D breast)	GI50 (HOP-62 NSCLC)	GI50 (HT29 colon)	GI50 (K-562 leukemia)	TGI (K-562 leukemia)	GI50 (MALME-3M melanoma)	GI50 (MCF7 breast)	GI50 (NCI-H522 lung)	TGI (NCI-H522 lung)	GI50 (PC-3 prostate) [µM]	GI50 (SF-539 CNS)	GI50 (SNB-75 CNS)	GI50 (T-47D breast)
OCC1OC(OCC(O)C(O)C(O)C(/C=N/Nc2ccccc2)=N/Nc2ccccc2)C(O)C(O)C1O (stereo unspecified)	> 100 µM	> 100 µM	> 100 µM	> 100 µM	> 100 µM	> 100 µM	> 100 µM	56.9 µM												
O=C(c1ccco1)c1nc2cc(F)ccc2[n+]([O-])c1C(F)(F)F	> 100 µM	79 µM	33.9 µM	> 100 µM	> 100 µM	> 100 µM	86.6 µM	> 100 µM	81.4 µM	24 µM	9.59 µM	47.9 µM	17.4 µM	56.2 µM	14.7 µM	32.2 µM	35.3	> 100 µM	24.5 µM	30.6 µM
CN(C)CCOc1ccc(/C(=C(/CCCl)c2ccccc2)c2ccccc2)cc1							4.48 µM and 24.2 µM		0.993 µM	0.598 µM	1.02 µM	2.46 µM and 23.6 µM	0.976 µM	0.565 µM	0.9 µM		0.901	0.891 µM	1.11 µM	0.841 µM
O=[N+]([O-])c1ccc2c(N3CCC(CCCC4CCN(c5ncnc6cc([N+](=O)[O-])ccc56)CC4)CC3)ncnc2c1	> 100 µM	> 86.4 µM	> 92.1 µM	> 59.3 µM	> 100 µM	> 100 µM	> 71.2 µM	> 69.3 µM	> 32.2 µM	21.7 µM	0.217 µM	> 100 µM	> 59.7 µM	0.619 µM	> 45.9 µM	> 100 µM	8.96	> 47.9 µM	> 39.6 µM	0.454 µM
CCOC(=O)c1c2c(n(Cc3ccccc3)c1C)-c1ccccc1C(=O)C2=O	27.1 µM	25.7 µM	29 µM	20.9 µM	19.8 µM	34.4 µM	24.7 µM	31.8 µM	13.7 µM	11.8 µM	17.1 µM	> 100 µM	13.7 µM	5.23 µM	14.8 µM	35.5 µM	6.83	18.7 µM	10.7 µM	13.2 µM
Cc1cnc(/C=N\NC(N)=S)c2cccc(N)c12	> 100 µM	> 100 µM	> 100 µM	> 100 µM	> 100 µM	3.7 µM and > 27.7 µM	> 27 µM and 9.48 µM	> 100 µM	2.89 µM	5.11 µM	2.82 µM	> 100 µM	3.53 µM	1.5 µM	3.87 µM	> 100 µM	> 22.7	0.596 µM	1.35 µM	2.49 µM
COC(=O)c1ccc(NC(=O)Nc2ccc3oc(=O)c4ccccc4c3c2)cc1	39.6 µM	> 100 µM	73.7 µM	> 100 µM	> 100 µM	> 100 µM	96.2 µM	> 100 µM	17.8 µM	28 µM	56.2 µM	> 100 µM	28.7 µM	35.2 µM	27.8 µM	> 100 µM	36.2	62.5 µM	32 µM	> 100 µM
CN(C)c1ccc(/C=C(\C#N)c2nc3ccccc3n2C)cc1	> 100 µM	> 33.3 µM	60.6 µM	> 76 µM	> 48.8 µM	6.94 µM	> 31.3 µM	27.2 µM	13.8 µM	0.742 µM	0.249 µM	10.8 µM	6.17 µM	0.612 µM	1.7 µM	16 µM	3.91	2.24 µM	2.54 µM	3.08 µM
O=C1c2ccccc2C(=Cc2ccccc2)c2ccccc21	10.2 µM	4.33 µM	23.4 µM	12 µM	15.8 µM	11.9 µM	7.45 µM	9.65 µM	2.62 µM	1.17 µM	0.673 µM	16 µM	6.2 µM	1.44 µM	1.55 µM	5.63 µM	2.26	3.57 µM	2.34 µM	2.68 µM
COc1ccc2c(c1)C(=O)C(=O)c1cc(O)c(OC)c(OC)c1-2	1.72 µM and 2.58 µM	3.83 µM	1.53 µM and 2.46 µM	1.74 µM and 3.59 µM	2.48 µM and 3.34 µM	3.35 µM	2.85 µM and 3.06 µM	2.81 µM and 3.13 µM	1.15 µM			3.01 µM	1.22 µM	1.96 µM	1.92 µM	1.74 µM and 3.55 µM	1.93		1.69 µM	1.75 µM
O=C(O)CCC(=O)c1ccc2ccc3cccc4ccc1c2c34	> 100 µM	> 100 µM	> 100 µM	> 100 µM	> 100 µM	68 µM	> 100 µM	> 100 µM				> 100 µM				> 100 µM				
CC/C=C\C/C=C\C[C@H](O)C/C=C1/C(=O)C=C[C@@H]1C/C=C\CCCC(=O)O	7.4 µM	11.4 µM	15.6 µM	18.5 µM	21.5 µM	15.2 µM	28.6 µM	20.1 µM	2.77 µM	3.78 µM	3.17 µM	> 100 µM	3.46 µM	2.96 µM	1.71 µM	3.78 µM	6.03	3.85 µM	10.4 µM	3.88 µM
O=C([O][Hg][CH2]C1COC([CH2][Hg][O]C(=O)c2ccccc2)CO1)c1ccccc1 (stereo unspecified)	37.9 µM and 56.4 µM	30.5 µM and 3.26 µM	3.81 µM and 3.23 µM	19.8 µM and 2.87 µM		29.7 µM and 30.5 µM	31.9 µM and 23.4 µM	4.06 µM and 4.17 µM	19.2 µM and 20.7 µM	15.7 µM and 1.7 µM	0.648 µM and 0.945 µM	2.87 µM	2.06 µM and 1.7 µM	3.69 µM and 1.16 µM	1.47 µM and 1.14 µM	3.78 µM and 4.64 µM	15.3	15.8 µM and 14.4 µM	17.6 µM and 4.32 µM	1.88 µM and 1.7 µM
CC(=O)OCC(=O)O[C@@H]1C[C@]2(C(C)C)O[C@@]1(C)[C@@H]1CC[C@@H](C)[C@H]1[C@@H]2OC(=O)/C=C/c1ccccc1	45.2 µM	> 100 µM	88.8 µM	> 100 µM	> 100 µM	> 100 µM	58.4 µM	> 97.2 µM	17.3 µM	23.6 µM	17.2 µM	> 100 µM	20.7 µM	22.6 µM	17.9 µM	47.8 µM	7.88	28.2 µM	13.2 µM	8.81 µM
CN1CCN(Cc2ccc(NC(=O)c3cncc(C#Cc4cncc5ncccc45)c3)cc2C(F)(F)F)CC1	12 µM	11.9 µM	1.05 µM	15.7 µM	24 µM	2.96 µM	18.8 µM	27.3 µM	2.53 µM	1.04 µM		11.4 µM	0.284 µM	3.28 µM	3.11 µM	17 µM	5.5	0.829 µM	5.83 µM	10.9 µM
O=C(Nc1cccc(Oc2nnc(Cl)c3ccccc23)c1)Nc1ccc(Cl)c(C(F)(F)F)c1	5.75 µM	3.14 µM	4 µM	3.03 µM	2.51 µM	4.01 µM	5.63 µM	2.24 µM	1.98 µM	0.771 µM	0.63 µM	4.27 µM	0.968 µM	0.571 µM	0.499 µM	3.46 µM	0.545	1.38 µM	1.61 µM	0.384 µM
O=c1cc(N2CCNCC2)oc2c(-c3ccccc3)cccc12	> 100 µM	> 100 µM	56.8 µM	> 100 µM	> 100 µM	> 100 µM	75 µM	> 100 µM	65.4 µM	24.8 µM	13.1 µM	47 µM	23.6 µM	40.7 µM	37 µM	> 100 µM	32	68 µM	15.3 µM	26.6 µM
C/C1=C/C2=CC(C)C[C@@H]2C(=O)[C@]2(C)C(=O)CC(C)(C)[C@H]2CC1=O (stereo partly specified)		> 50 µM	> 50 µM	> 50 µM	> 50 µM	> 50 µM	> 50 µM	> 50 µM				> 50 µM				> 50 µM				
N#Cc1ccc(N2Cc3ccccc3OC3=C2C(=O)c2c(O)ccc(O)c2C3=O)cc1	4.99 µM	0.875 µM	0.264 µM	2.66 µM	1.29 µM	1.38 µM	2.68 µM	0.487 µM	1.29 µM	0.258 µM	0.071 µM		0.0837 µM	0.329 µM	0.0336 µM	0.162 µM	0.357	0.564 µM	0.66 µM	0.175 µM
COc1cccc2c1-c1c(c3ccc([N+](=O)[O-])cc3c(=O)n1CCCCl)C2=O	15.9 µM	> 50 µM	> 50 µM	0.327 µM	> 50 µM		32.3 µM	> 50 µM	5.46 µM	> 50 µM	> 50 µM	> 50 µM	7.06 µM	0.0614 µM	0.685 µM	> 50 µM	7.37		11.6 µM	> 50 µM
